Laboratory results reported in paper PMC12153356, “An antisense oligomer conjugate with unpredicted bactericidal activity against Fusobacterium nucleatum” (mBio, 2025).
“Also recorded” adds a separate entry of the source.

Legend:
[1] = tested on: F. nucleatum subsp. nucleatum ATCC 23726 (FNN23); test: MIC determination and growth inhibition assay (broth microdilution, OD600 over time); assay type: cell-based, Fusobacterium nucleatum subsp. nucleatum ATCC 23726; details: for Growth inhibition of FNN23: 10 µM compound, 1 × 10^5 CFU/mL, growth inhibition = no visible growth (OD600 <0.01) after 120 h
Method: To test CPP-PNA conjugates for growth inhibition, we diluted mid-exponential phase cultures of FNN23 to 1 × 10^5 colony forming units (CFUs) per milliliter in Mueller-Hinton Broth (MHB) and incubated the diluted bacteria with 10 µM of either (KFF)3K- or (RXR)4XB- conjugated PNAs targeting acpP, ftsZ or gyrA. Growth was monitored over time by OD600 measurements, with growth inhibition defined as no visible growth (OD600 <0.01) after 120 h. […] Based on these findings, we conclude that CPP-PNAs targeting fusobacterial mRNAs are not effective in antisense inhibition.
(§1) The following fusobacterial strains were used in this study: Fusobacterium nucleatum subsp. nucleatum ATCC 23726 (FNN23) acquired from the American Type Culture Collection (ATCC), F. nucleatum subsp. nucleatum ATCC 25586 (FNN25), F. nucleatum subsp. vincentii ATCC 49256 (FNV), and F. nucleatum subsp. polymorphum ATCC 10953 (FNP) acquired from the German Collection of Microorganisms and Cell Culture (DSMZ), F. nucleatum subsp. animalis 7_1 (FNA) and F. periodonticum 2_1_31 (FPE) both received as a kind gift from E. Allen-Vercoe (University of Guelph, Canada). All strains were routinely grown at 37°C in 80:10:10 (N2:H2:CO2) anaerobic conditions on 2% agar supplemented BHI plates (BHI, 1% [wt:vol] dried yeast extract, 1% [vol:vol] 50% sterile-filtered glucose solution, 5 µg/mL of hemin; 1% [vol:vol] fetal bovine serum) from frozen 20% glycerol stocks kept at −80°C. For liquid growth, the strains were cultured in Columbia broth (ColB; BD Difco). Precultures were prepared 24 h before inoculating the working culture at a 1:50 dilution in fresh ColB until OD600 0.5 was reached. Cultures were then diluted in non-cation adjusted Mueller-Hinton Broth (MHB, BD Difco) to the desired CFU/mL number. P. gingivalis (DSM 20709) was purchased from DSMZ and grown at 37°C in anaerobic conditions as mentioned above on 2% agar supplemented BHI+ plates (BHI, 1% [wt:vol] dried yeast extract, 1% [vol:vol] 50% sterile filtered glucose solution, 5 µg/ml of hemin; 10% [vol:vol] fetal bovine serum; and 1 µg/mL vitamin K3) for 4 days. For liquid growth, P. gingivalis was cultured in BHI+ medium (BHI, BD Difco supplemented with 1% [vol:vol] 50% sterile-filtered glucose solution, 5 µg/mL of hemin; 1% [vol:vol] fetal bovine serum, and 1 µg/mL vitamin K3). Precultures were prepared 24 h before inoculating the working culture at a 1:20 dilution in BHI+ until OD600 of 0.5 was reached. All plates, media, buffers, and reagents were brought into the anaerobic chamber the day before usage to ensure full oxygen depletion.
To determine the MIC value, broth microdilutions were performed according to the standard protocol with some modifications ([119]). An overnight bacterial culture was diluted in a fresh ColB medium and grown to OD600 0.5 (mid-exponential phase). […] To determine the growth inhibition of P. gingivalis, an o.n. culture grown in BHI+ was diluted 1:1,500 in MHB to obtain 1 × 10^5 CFU/mL. E. coli K12, E. coli Nissle 1917, and S. enterica o.n. cultures grown in MHB were diluted 1:1,800 in fresh MHB to obtain 1 × 10^5 CFU/mL. In total, 190 µL of diluted bacterial cultures were pipetted into a transparent 96-well plate (Nunc, Thermo Fischer Scientific) together with 10 µL of respective 20× CPP or CPP-PNA stock or water as control. Bacterial growth was monitored by measuring OD600 every 20 min with constant shaking in a plate reader (Biotek) under the normal atmospheric environment or positioned in the anaerobic chamber with double orbital shaking every 20 min prior to each measurement with 237 cpm at 37°C for 120 h.

[2] = tested on: F. nucleatum subsp. animalis 7_1 (FNA); test: Growth inhibition assay; assay type: cell-based, Fusobacterium nucleatum subsp. animalis 7_1; details: 10 µM, MHB, 1 × 10^5 CFU/mL input, three replicates
Text: as §1, with “For liquid growth, P. gingivalis was cultured in BHI+ medium (BHI, BD Difco supplemented with 1% [vol:vol] 50% sterile-filtered glucose solution, 5 µg/mL of hemin; 1% [vol:vol] fetal bovine serum, and 1 µg/mL vitamin K3). Precultures were prepared 24 h before inoculating the working culture at a 1:20 dilution in BHI+ until OD600 of 0.5 was reached. All plates, media, buffers, and reagents were brought into the anaerobic chamber the day before usage to ensure full oxygen depletion.” left out
To determine the MIC value, broth microdilutions were performed according to the standard protocol with some modifications ([119]). […] Bacterial growth was monitored by measuring OD600 every 20 min with constant shaking in a plate reader (Biotek) under the normal atmospheric environment or positioned in the anaerobic chamber with double orbital shaking every 20 min prior to each measurement with 237 cpm at 37°C for 120 h.

E. coli Nissle 1917 = test: Growth inhibition assay; assay type: cell-based, Escherichia coli Nissle 1917; details: 10 µM, MHB, 1 × 10^5 CFU/mL input, aerobic, 24 h
Method: (§2) Aerobic bacterial culture was conducted with E. coli K12 MG1655 (provided by D. Lee), E. coli Nissle 1917, and S. enterica serovar Typhimurium SL1344 (provided by D. Bumann, Biocenter Basel, Switzerland). The strains were streaked on lysogeny broth plates, incubated o.n. at 37°C and cultured in non-cation-adjusted MHB with aeration at 37°C and 220 rpm constant shaking.
(§3) To determine the MIC value, broth microdilutions were performed according to the standard protocol with some modifications ([119]). An overnight bacterial culture was diluted in a fresh ColB medium and grown to OD600 0.5 (mid-exponential phase). Fusobacteria were then diluted 1:2,500 or 1:250 in fresh MHB to obtain 1 × 10^5 CFU/mL or 1 × 10^6 CFU/mL as indicated. To determine the growth inhibition of P. gingivalis, an o.n. culture grown in BHI+ was diluted 1:1,500 in MHB to obtain 1 × 10^5 CFU/mL. E. coli K12, E. coli Nissle 1917, and S. enterica o.n. cultures grown in MHB were diluted 1:1,800 in fresh MHB to obtain 1 × 10^5 CFU/mL. […] Bacterial growth was monitored by measuring OD600 every 20 min with constant shaking in a plate reader (Biotek) under the normal atmospheric environment or positioned in the anaerobic chamber with double orbital shaking every 20 min prior to each measurement with 237 cpm at 37°C for 120 h.

[3] = tested on: Salmonella enterica serovar Typhimurium SL1344; test: Growth inhibition assay; assay type: cell-based; details: 10 µM, MHB, 1 × 10^5 CFU/mL input, aerobic, 24 h
Method: as §2, §3

| Substance | Growth inhibition of FNN23 ([1]; MHB) | Effect on FNN23 at higher inoculum ([1]; 10 µM, 10^7 CFU/mL in MHB (Fig. S3B)) | Growth inhibition of FNN23 by further batches of FUS79 ([1]; batch reordered from original vendor and in-house synthesis, MHB, 1 x 10^5 CFU per ml (Fig. S2A and B)) | MIC of FUS79 ([1]; dilution series, FNN23 in MHB at 1 × 10^5 CFU/mL input, anaerobic, 37°C, OD600 <0.01, three replicates (Fig. 3A)) [µM] | Effect on FNN23 in brain heart infusion (BHI) ([1]; peptide-rich medium BHI, 1 x 10^5 CFU per ml input (Fig. S3C)) | Effect on FNN23 in Columbia broth (ColB) ([1]; peptide-rich medium ColB, 1 x 10^5 CFU per ml input (Fig. S3C)) | Growth inhibition of FNA [2] | Growth inhibition of E. coli Nissle 1917 (E. coli Nissle 1917) | Effect on growth of S. enterica [3] |
| --- | --- | --- | --- | --- | --- | --- | --- | --- | --- |
| (RXR)4XB-GACATAATTGT [FUS79, non-targeting (RXR)4XB-PNA 11-mer control, (RXR)4XB-…] | completely inhibited growth; also recorded: inhibited the growth | no longer bactericidal | Both batches confirmed the FUS79-mediated growth inhibition | 10 | no effect | no effect | inhibited the growth | no growth inhibition | no specific bactericidal effect |
| RXRRXRRXRRXRXB [PNAscr] | no impact on growth |  |  |  |  |  | growth retardation compared with the water control | no growth inhibition |  |
